These results are taken from US4800194A, “Acylphosphorotriamides useful as lipid-altering agents” (priority 1986, dated 1989).

What is called inhibition is the relative decrease from the control value, in per cent. Read a high inhibition as a strong effect.

Test [1] has as its target T1, acetylcholinesterase (Homo sapiens, UniProt P22303).
T1 construct: The supernatant (lysed RBC's) was stored frozen; from tissue; host or cells: lysed human red blood cells (supernatant of hypotonic lysis)
Briefly: Inhibition of acetylcholinesterase (AChE) activity of lysed human red blood cells (Test Method 1). Format: biochemical. To be noted: 60 min preincubation. The method, then:
The following method was used to determine the relative inhibition of pseudocholinesterase and acetylcholinesterase by compounds of the present invention.
Lysed Red Blood Cells (RBC's) (Source of Acetylcholinesterase Enzyme)
Human blood which was collected in EDTA treated tubes was centrifuged at 1500×g for 10 min. at 4° C. One volume of chilled 0.9% saline solution was gently mixed with one volume of packed RBC's. One volume of this suspension was then washed three times with ten volumes of chilled 0.9% saline solution (4° C.). Each wash was centrifuged at 1500×g for 10 min. at 4° C. and supernatant was discarded. After the last wash the supernatant was replaced with deionized, distilled water (treated by Milli-Q apparatus, Millipore Corp., Bedford, MA) (4° C.). After 15 min. at 4° C. the suspension was centrifuged at 1500×g for 10 min. at 4° C. The supernatant (lysed RBC's) was stored frozen at -20° C. until use.
The buffer/chromogen solution was 0.25 mM 5,5'-dithiobis-[2-nitrobenzoic acid] (chromogen), 50 mM phosphate buffer, pH 7.2. In making up the buffer/chromogen solution and to keep it as colorless as possible, the phosphate buffer was first adjusted to pH 7.1 with NaOH; the chromogen was then added and dissolved; the pH was adjusted to 7.2; and the final volume was adjusted with addition of Milli-Q water. 5,5'-dithiobis-(2-nitrobenzoic acid) was obtained from Sigma Chemicals, St. Louis, MO.
The substrate solution for the pseudocholinesterase assay was 156 mM S-butyrylthiocholine iodide, and the substrate solution for the acetylcholinesterase assay was 156 mM S-acetylthiocholine iodide. Both substrate compounds were obtained from Sigma Chemicals.
Test Compound Stock Solutions
Solutions of all test compounds were made up at 2 μM, 20 μM, and 200 μM concentrations (in 0.9% saline solution) except as noted where lower concentrations were necessary because of decreased solubility of the compound in saline solution.
Acetylcholinesterase (AChE) Assay
The acetylcholinesterase assay was performed identically to the pseudocholinesterase assay with the following exceptions. The concentrations of the stock solutions of test compounds were 20 μM and 200 μM, instead of 2 μM and 20 μM, and the substrate solution was 156 mM S-acetylthiocholine iodide instead of S-butyrylthiocholine iodide. The lysed RBC's/test compound solution was incubated for 0 and 60 minutes instead of 0 and 30 minutes before being added to the cuvette containing the buffer/chromogen/substrate solution. From a plot of net absorbance versus time there was an initial period before the curve reached a steady linear rate. From this linear portion of the curve a rate of absorbance change per minute was calculated.
Each compound was tested for its ability to inhibit plasma pseudocholinesterase activity and acetylcholinesterase activity. Because of variation in the time points in the linear portion of the curve, inhibition values below 10-15% and higher than 85-90% are nearly indistinguishable from 0% and 100%, respectively.

Test [2] has as its system Hyperlipidemic Guinea Pigs. Description: Multiple dose study in hyperlipidemic guinea pigs: plasma LDL/HDL ratio by lipoprotein electrophoresis (Test Method 2, Example 29). Format: in vivo, guinea pig. The conditions noted are these: 2.5 mg/kg i.p. once daily. An excerpt: Male Hartley guinea pigs (Elm Hill Breeding Labs., Chelmsford, MA or Charles River, Wilmington, MA) was used in all experiments unless otherwise specified. The animals were maintained on a normal diet of rabbit pellets (Purina Rabbit Chow 5321, Ralston Purina, St. Louis, MO) and water containing 0.1% ascorbic acid ad libitum. For special studies in the hyperlipidemic guinea pig model, the animals were maintained on the high cholesterol diet described in this report and water containing 0.1% ascorbic acid ad libitum.
Individual animals were identified by ear and cage markings. The dose of drug or placebo was adjusted daily for changes in the weight of the guinea pigs. Blood samples were collected in EDTA Vacutainers by open chest cardiac puncture under carbon dioxide anesthesia from guinea pigs which had been fasted overnight. The animals were then sacrificed by CO2 inhalation. Blood samples were centrifuged at 2000 rpm for 15 min. in an IEC centrifuge (International Equipment Co., Boston, MA) with a 240 rotor for isolation of plasma. Lipoprotein analyses of plasma were carried out on the same day as the blood collection. Assays of pseudocholinesterase activity were carried out within a week of blood collection on plasma samples which had been stored at 4° C.
Freshly prepared samples of EDTA plasma were analyzed for lipoproteins with the Redi-Disc Lipoprotein Electrophoresis Kit (Miles Laboratories, Elkhart, IN) by the procedure recommended in the package insert supplied in the kit.
Redi-Disc Lipoprotein Gel Tubes, polyacrylamide 3%, buffer, preservative.
Redi-Disc Lipoprotein Loading Gel, acrylamide 2.5 g/dl., N,N'-methylenebisacrylamide 0.6 g/dl, sudan black B 13 mg/dl, catalyst, stabilizer, buffer.
Redi-Disc Lipoprotein Buffer, Trishydroxymethylaminomethane 27% w/w, boric acid 73% w/w, pH of solution 7.4-7.9 (11 g diluted to 1200 ml with water).
The gel tubes were removed from the storage buffer and shaken to remove excess buffer. A 25 μl aliquot of plasma was added to each tube and mixed with 200 μl of loading gel. The loading gel was photopolymerized for 30-40 min. under a fluorescent light. The gel tubes were placed in the electrophoresis apparatus (Buchler Instruments, Fort Lee, NJ) and Redi-Disc Liproprotein Buffer was then added to the upper and lower chambers of the apparatus. The current was adjusted to 5 mA per gel tube. Electrophoresis was stopped when the HDL band was about 4-5 mm from the bottom of the gel tube.
The gels were stored in water for at least 30 min. following electrophoresis to allow the lipoprotein zones to spread. The gels were scanned at 615 nm in either a Beckman Acta C111 spectrophotometer or a Beckman DU-8B spectrophotometer. The areas of the lipoprotein peaks (VLDL, LDL, and HDL) were determined by gravimetric analysis (cut and weighed) on the Acta C111 or by electronic integration on the DU-8B.
A 1:15 mixture of cholesterol:corn oil was prepared by adding 25 g of USP cholesterol (Sigma Chemical Company, St. Louis, MO) to 375 g of corn oil (Mazola, Best Foods, CPC International, Inc., Englewood Cliffs, NJ). The mixture was stirred, sonicated, and heated in a hot water bath until the cholesterol completely dissolved. It was necessary to keep the mixture warm (50°-60° C.) in order to prevent congealing.
Batches of feed were prepared by adding 160 g of the cholesterol-corn oil solution to 840 g of Purina Rabbit Chow 5321. The pellets and lipid mixture were thoroughly mixed in a 2-liter or 3-liter Erlenmeyer flask to ensure uniform coating of the pellets. The feed was then stored at room temperature until needed.
Two groups of male Hartley Guinea pigs were maintained on the high cholesterol diet described above and water containing 0.1% ascorbic acid ad libitum. One group was treated once daily with a freshly prepared solution of test compound 4, N-(diaminophosphinyl)-4-fluorobenzamide, (1.0 mg/ml in 0.9% saline solution) at 2.5 mg/kg by intraperitoneal injection for 14 days. […]

T1 sequence (P22303 other isoform, or with tags, fused parts or gaps): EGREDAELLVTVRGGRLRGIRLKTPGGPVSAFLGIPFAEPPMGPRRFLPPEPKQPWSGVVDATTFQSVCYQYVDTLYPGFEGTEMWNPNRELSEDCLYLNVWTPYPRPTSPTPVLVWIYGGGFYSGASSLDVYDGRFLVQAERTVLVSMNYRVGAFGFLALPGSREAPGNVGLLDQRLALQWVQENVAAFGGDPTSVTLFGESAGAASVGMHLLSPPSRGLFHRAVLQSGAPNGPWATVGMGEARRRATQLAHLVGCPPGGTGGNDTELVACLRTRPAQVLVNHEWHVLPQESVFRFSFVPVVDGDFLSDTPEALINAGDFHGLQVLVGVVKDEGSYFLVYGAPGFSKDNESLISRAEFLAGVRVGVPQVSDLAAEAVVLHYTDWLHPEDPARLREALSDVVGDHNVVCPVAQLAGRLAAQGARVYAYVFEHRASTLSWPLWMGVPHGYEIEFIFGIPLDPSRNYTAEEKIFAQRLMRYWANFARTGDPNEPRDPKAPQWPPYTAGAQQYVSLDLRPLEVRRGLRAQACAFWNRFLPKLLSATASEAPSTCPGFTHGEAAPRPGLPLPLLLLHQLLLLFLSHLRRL

For the compound `NP(N)(=O)NC(=O)c1ccc(F)cc1` [Test Compound 4, N-(diaminophosphinyl)-4-fluorobenzamide], the inhibition at 10 µM in test [1] (10 μM) is 12.4%. In test [1] (100 μM), this compound registered an inhibition at 100 µM of 52.3%. Also, the “LDL/HDL ratio vs saline-treated control” value in test [2] (14th day of treatment, result in words) is recorded as “significantly lower (p<0.05)”. In addition, the LDL/HDL in test [2] (day 1, control 2.45) was determined as 1.91; in test [2] (day 3, control 2.28), 2.43; in test [2] (day 7, control 4.25), 4.08; in test [2] (day 10, control 3.23), 2.75; in test [2] (day 14, control 2.60, significantly different from control (p < 0.05)), 1.50.
